{"source": "patent US8404839B2", "about": "“Crystalline 4-(3-chloro-2-fluoroanilino)-7 methoxy-6-{[1-(N-methylcarbamoylmethyl)piperidin-4-yl]oxy} quinazoline difumarate Form A” (Astrazeneca AB, priority 2008, dated 2013)", "key": {"[1]": {"experiment": "Aqueous solubility (HPLC UV)", "format": "physicochemical", "conditions": "for solubility at 48 h: thermodynamic from solid, 25° C.", "description": "(xi) solubility in water was measured using HPLC UV.\nThe intrinsic dissolution rates of Compound (I) difumarate Form A and Compound (I) was also been measured in a range of aqueous buffers."}, "[2]": {"experiment": "Intrinsic dissolution rate in aqueous buffers", "format": "physicochemical", "conditions": "for Intrinsic Dissolution Rate: 37° C.", "description": "(x) intrinsic dissolution rate was measured in a dissolution bath coupled to a fibre optic uv detector."}, "[3]": {"experiment": "In vitro dissolution of direct compression tablets", "format": "physicochemical", "conditions": "pH 4.5 citrate buffer, 100 mg free base equivalents", "description": "The performance of the solid dosage forms was evaluated in vitro prior to the in-vivo dog study commencing."}, "[4]": {"experiment": "Pharmacokinetic study in dogs", "format": "in vivo, Male Beagle Dogs", "conditions": "dog, n = 4, mean ± SE; for AUC(0-t): read-out: AUC(0-48)"}, "Dynamic vapour sorption": {"experiment": "Dynamic vapour sorption", "format": "physicochemical", "conditions": "for hygroscopicity (in words): Dynamic Vapour Sorption", "description": "(ix) dynamic vapour sorption was measured using a SMS DVS (Surface Measurement Systems Limited, UK). Samples were analysed at 25° C. using a gas flow of 200 cubic centimeters per minute. The relative humidity (RH) was increased from 0% RH in steps of 10% RH to 80% RH with the final step of 95% RH. The sample was then desorbed using the same RH step pattern as the sorption; this procedure was then repeated in a second sorption/desorption cycle. Equilibration at each humidity step is set such that the rate of change of weight with time (minute) was 0.002%."}, "ErbB2": {"target": "ErbB2 (Homo sapiens, UniProt P04626)", "sequence (P04626 23-1255)": "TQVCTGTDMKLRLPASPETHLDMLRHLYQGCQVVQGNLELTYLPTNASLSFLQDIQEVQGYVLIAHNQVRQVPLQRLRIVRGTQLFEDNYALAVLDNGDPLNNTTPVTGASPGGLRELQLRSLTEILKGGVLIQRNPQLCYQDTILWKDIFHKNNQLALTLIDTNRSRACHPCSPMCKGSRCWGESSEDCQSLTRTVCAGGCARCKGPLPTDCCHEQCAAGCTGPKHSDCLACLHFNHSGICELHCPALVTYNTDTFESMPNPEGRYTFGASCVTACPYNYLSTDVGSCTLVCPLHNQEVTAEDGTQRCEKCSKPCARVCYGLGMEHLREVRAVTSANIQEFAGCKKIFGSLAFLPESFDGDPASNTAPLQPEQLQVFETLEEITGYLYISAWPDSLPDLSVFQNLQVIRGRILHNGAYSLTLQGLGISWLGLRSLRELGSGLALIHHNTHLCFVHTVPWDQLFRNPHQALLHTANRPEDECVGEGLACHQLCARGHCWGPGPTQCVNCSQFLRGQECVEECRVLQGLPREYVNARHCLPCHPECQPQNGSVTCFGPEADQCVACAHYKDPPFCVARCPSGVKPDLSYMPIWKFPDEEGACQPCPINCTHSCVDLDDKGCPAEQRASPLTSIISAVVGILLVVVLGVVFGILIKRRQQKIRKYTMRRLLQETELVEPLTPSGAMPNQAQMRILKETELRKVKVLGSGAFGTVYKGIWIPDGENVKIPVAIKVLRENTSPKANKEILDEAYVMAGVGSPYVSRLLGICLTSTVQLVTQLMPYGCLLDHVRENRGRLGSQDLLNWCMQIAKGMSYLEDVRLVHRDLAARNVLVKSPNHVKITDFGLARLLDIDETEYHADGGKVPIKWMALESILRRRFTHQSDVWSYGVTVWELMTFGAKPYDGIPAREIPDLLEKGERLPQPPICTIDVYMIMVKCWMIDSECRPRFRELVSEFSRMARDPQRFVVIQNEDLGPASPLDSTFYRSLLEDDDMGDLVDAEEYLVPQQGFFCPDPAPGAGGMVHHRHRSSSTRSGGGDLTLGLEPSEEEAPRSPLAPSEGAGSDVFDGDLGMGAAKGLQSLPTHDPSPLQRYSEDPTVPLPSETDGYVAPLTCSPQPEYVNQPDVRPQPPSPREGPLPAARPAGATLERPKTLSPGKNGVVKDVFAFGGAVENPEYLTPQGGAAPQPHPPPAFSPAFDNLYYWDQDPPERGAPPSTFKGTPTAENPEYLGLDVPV", "experiment": "p-ErbB2 ELISA in HRG-stimulated MCF-7 cells", "format": "cell-based", "conditions": "90 minutes treatment, bracket = confidence interval ratio, read-out: p-ErbB2 Geo Mean IC50 (95% CIR)"}, "ErbB3": {"system": "ErbB3", "experiment": "p-ErbB3 ELISA in HRG-stimulated MCF-7 cells", "format": "cell-based, Human", "conditions": "90 minutes treatment, bracket = confidence interval ratio, read-out: p-ErbB3 Geo Mean IC50 (95% CIR)", "description": "KB cells and MCF-7 cells were obtained from the American Type Culture Collection (ATCC) and routinely cultured in RPMI 1640 (Phenol red free)+10% Foetal Bovine Serum+2 mM L-Glutamine. KB cells were seeded at 5000 cells/well and MCF-7 cells at 4000 cells/well in 96 well plates in RPMI 1640 media containing 10% FBS. Cells were incubated for 72 hours before replacing the media with serum-free RPMI 1640 media for 24 hours. […] Immediately before cell lysis, MCF-7 and KB cells were incubated for 5 minutes with ligand (heregulin (“HRG”) for the MCF-7 cells and epidermal growth factor (“EGF”) for the KB cells) at concentrations required to increase receptor phosphorylation to 90% of max (ED90) to allow inter-assay comparison. The p-EGFR status of KB cells was measured using the Human phospho-EGFR Duoset ELISA kit (R&D systems total EGFR #DYC1854, pEGFR #DYC1095). The p-ErbB2 and p-ErbB3 content of MCF-7 cells were measured using the Human phospho-ErbB2 Duoset ELISA kit (R&D systems, DYC1768) and Human phospho-ErbB3 Duoset ELISA kit (R&D systems, DYC1769) respectively. The kits measured whole cell tyrosine phosphorylation of EGFR, ErbB2 or ErbB3. Assays were performed according to the manufacturers instructions, with 50 μl lysate added per well."}, "MCF-7 cells [5]": {"system": "MCF-7 cells", "experiment": "HRG-stimulated MCF-7 cell proliferation assay (MTS)", "format": "cell-based", "conditions": "Homo sapiens, MCF7, 96 h, 10 ng/ml HRG, 4 days, basal growth subtracted, read-out: HRG-stimulated proliferation Geo Mean IC50"}, "MCF-7 cells [6]": {"system": "MCF-7 cells", "experiment": "Basal MCF-7 cell proliferation assay (MTS)", "format": "cell-based", "conditions": "Homo sapiens, MCF7, 96 h, unstimulated, 4 days, read-out: Basal proliferation Geo Mean GI50", "description": "MCF-7 cells were routinely cultured in DMEM (Phenol red free)+10% Foetal Bovine Serum+2 mM L-Glutamine. […] Basal wells were unstimulated with ligand. After incubation for 4 days, cell viability was assessed using a 3-(4,5-dimethylthiazol-2-yl)-5-(3-carboxymethoxyphenyl)-2-(4-sulfophenyl)-2H-tetrazolium (MTS) assay. Prior to IC50 determination of HRG-stimulated compound-treated cells, mean basal growth at 96 hours was subtracted from each of the readouts so that proliferation driven through HRG-signalling was assessed. Basal IC50 values are expressed as GI50 i.e. the day 0 plate cell number (baseline reading) was subtracted from the readout at 96 hours later."}, "[7]": {"experiment": "Cellular permeability / BCS classification", "format": "in vitro ADME"}, "[8]": {"conditions": "oral direct compressed tablet, 100 mg free form equivalent"}, "[9]": {"conditions": "oral direct compressed tablet, 100 mg free form equivalent, versus IV 20 mg"}, "[10]": {"conditions": "male, beagle, plasma, oral direct compressed tablet, 100 mg free form equivalent"}}, "note": "Read-outs that look alike come from different tables or passages of the source.", "data": [{"compound": "CNC(=O)CN1CCC(Oc2cc3c(Nc4cccc(Cl)c4F)ncnc3cc2OC)CC1.O=C(O)/C=C/C(=O)O.O=C(O)/C=C/C(=O)O", "note": "[Compound (I) difumarate Form A, 2-[4-({4-[(3-Chloro-2-fluorophenyl)amino]-7-methoxyquinazolin-6-yl}oxy)piperidin-1-yl]-N-methylacetamide di-[(2E)-but-2-enedioate] Form A]", "values": [{"measurement": "solubility in water", "setting": "[1]; pH 3.5", "result": 22500, "unit": "µg/mL"}, {"measurement": "Intrinsic Dissolution Rate", "setting": "[2]; SGF (Simulated Gastric Fluid)", "result": 15.9, "unit": "mgmin^−1cm^−2"}, {"measurement": "Intrinsic Dissolution Rate", "setting": "[2]; pH 6.5 phosphate buffer", "result": 2.51, "unit": "mgmin^−1cm^−2"}, {"measurement": "% Dissolution at 45 minutes", "setting": "[3]", "result": 100.3, "unit": "%"}, {"measurement": "AUC(0-48)", "setting": "[4]; [8]", "result": "190.3 ± 46.9", "unit": "µM·h"}, {"measurement": "Cmax", "setting": "[4]; [8]", "result": "32.6 ± 3.6", "unit": "µM"}, {"measurement": "Tmax", "setting": "[4]; [8]", "result": "1.1 ± 0.3", "unit": "h"}, {"measurement": "half-life", "setting": "[4]; [8]", "result": "16.9 ± 4.0", "unit": "h"}, {"measurement": "Bioavailability(0-48 h)", "setting": "[4]; [9]", "result": 113, "unit": "%"}, {"measurement": "Bioavailability(0-48 h)", "setting": "[4]; oral direct compressed tablet, 100 mg free form equivalent, versus IV 20 mg, listed as Difumarate Form A", "result": "112.5 ± 8.1", "unit": "%"}, {"measurement": "hygroscopicity (in words)", "setting": "Dynamic vapour sorption", "result": "non-hygroscopic"}, {"measurement": "moisture absorbed (Dynamic Vapour Sorption)", "setting": "Dynamic vapour sorption; up to 95% relative humidity, 25° C.", "result": "< 0.5", "unit": "%"}]}, {"compound": "CNC(=O)CN1CCC(Oc2cc3c(Nc4cccc(Cl)c4F)ncnc3cc2OC)CC1", "note": "[Compound (I), 4-(3-chloro-2-fluoroanilino)-7-methoxy-6-{[1-(N-methylcarbamoylmethyl)piperidin-4-yl]oxy}quinazoline]", "values": [{"measurement": "IC50", "setting": "ErbB2", "result": 3, "unit": "nM"}, {"measurement": "IC50", "setting": "ErbB3", "result": 4, "unit": "nM"}, {"measurement": "IC50", "setting": "MCF-7 cells [5]", "result": 61, "unit": "nM"}, {"measurement": "GI50", "setting": "MCF-7 cells [6]", "result": 1090, "unit": "nM"}, {"measurement": "solubility at 48 h", "setting": "[1]; aqueous buffer, pH 2.7, 48 hours, read-out: solubility in aqueous buffer", "result": 27200, "unit": "µg/mL"}, {"measurement": "solubility at 48 h", "setting": "[1]; aqueous buffer, pH 7.9, 48 hours, read-out: solubility in aqueous buffer", "result": 1, "unit": "µg/mL"}, {"measurement": "solubility at 48 h", "setting": "[1]; water, 48 hours, pH 7.0, read-out: solubility in water", "result": 1, "unit": "µg/mL"}, {"measurement": "Intrinsic Dissolution Rate", "setting": "[2]; SGF (Simulated Gastric Fluid)", "result": 19.2, "unit": "mgmin^−1cm^−2"}, {"measurement": "Intrinsic Dissolution Rate", "setting": "[2]; pH 6.5 phosphate buffer", "result": 0.01, "unit": "mgmin^−1cm^−2"}, {"measurement": "intrinsic dissolution rate (in words)", "setting": "[2]; particularly at pH below 6.0", "result": "relatively low"}, {"measurement": "% Dissolution at 45 minutes", "setting": "[3]", "result": 93.6, "unit": "%"}, {"measurement": "Bioavailability(0-48 h)", "setting": "[4]; [9]", "result": "63.5 ± 7.0", "unit": "%"}, {"measurement": "bioavailability", "setting": "[4]; male, beagle, plasma, oral, 100 mg, oral direct compressed tablet, 100 mg free form equivalent, versus IV 20 mg, read-out: Bioavailability(0-48 h)", "result": 64, "unit": "%"}, {"measurement": "Cmax", "setting": "[4]; male, beagle, plasma, IV 20 mg", "result": "9 ± 1.1", "unit": "µM"}, {"measurement": "AUC(0-t)", "setting": "[4]; male, beagle, plasma, IV 20 mg", "result": "33.4 ± 7.7", "unit": "µM·h"}, {"measurement": "clearance", "setting": "[4]; male, beagle, plasma, IV 20 mg, read-out: Cl (Clearance)", "result": "1.9 ± 0.5", "unit": "mL/min/kg"}, {"measurement": "half-life", "setting": "[4]; male, beagle, plasma, IV 20 mg, read-out: Half-life (converted)", "result": "5.3 ± 0.2", "unit": "h"}, {"measurement": "Tmax", "setting": "[4]; male, beagle, plasma, IV 20 mg, read-out: Tmax", "result": 0.2, "unit": "h"}, {"measurement": "Vd", "setting": "[4]; male, beagle, plasma, IV 20 mg, read-out: Vss (Volume of distribution at steady state)", "result": "0.6 ± 0.1", "unit": "L/kg"}, {"measurement": "Cmax", "setting": "[4]; [10]", "result": "14 ± 1.7", "unit": "µM"}, {"measurement": "AUC(0-t)", "setting": "[4]; [10]", "result": "104 ± 25.3", "unit": "µM·h"}, {"measurement": "half-life", "setting": "[4]; male, beagle, plasma, oral direct compressed tablet, 100 mg free form equivalent, read-out: Half-life (converted)", "result": "8.2 ± 0.6", "unit": "h"}, {"measurement": "Tmax", "setting": "[4]; male, beagle, plasma, oral direct compressed tablet, 100 mg free form equivalent, read-out: Tmax", "result": "1.6 ± 0.8", "unit": "h"}, {"measurement": "hygroscopicity (in words)", "setting": "Dynamic vapour sorption", "result": "moderately hygroscopic"}, {"measurement": "moisture uptake (Dynamic Vapour Sorption)", "setting": "Dynamic vapour sorption; at 80% relative humidity, 25° C.", "result": "approximately 1.9 % w/w"}, {"measurement": "cellular permeability (in words)", "setting": "[7]", "result": "high"}, {"measurement": "BCS classification", "setting": "[7]; suggested by low solubility and high permeability", "result": "Class II"}]}]}
